The values that follow come from patent publication US20070060605A1, “Compositions and methods for inhibiting platelet activation and thrombosis” (priority 2001, published 2007).

Experiment [1] has as its system platelets. Put plainly: Platelet aggregation (aggregometer). The class given is cell-based, human. The note with it: for IC50: Homo sapiens, Platelet. The protocol:
Platelet aggregation profiling is a standard methodology, generally performed with an instrument adapted for that express purpose, for example, a Platelet Aggregation Profiler (BioData, Horsham, Pa.). The assays can generally be performed according to the instructions of the manufacturer. As exemplary conditions, 400 μl of PRP are incubated with inhibitor for 15 minutes at room temperature. The sample is then incubated for 3 minutes at 37° C. in the Platelet Aggregation Profiler. The instrument is calibrated with platelet poor plasma serving as a blank. A baseline tracing is established by monitoring the light transmittance of PRP being stirred at 1200 rpm. Aggregation is initiated by the addition of SFLLR (200 μM) and the percent of platelet aggregation is measured by the change in light transmittance for 6 minutes following addition of SFLLR.

Experiment [2] deals with platelets. Put plainly: Agonist-induced platelet granule secretion / activation (P-selectin expression by flow cytometry; ADP/ATP release). It is filed as cell-based, human. As to conditions: for IC50: Homo sapiens, Platelet. The protocol: In order to monitor ATP release, a cocktail of 100 μM SFLLR (synthesized using solid phase Fmoc chemistry on an Applied Biosystems model 430A peptide synthesizer) and 3 mg/ml of luciferin/luciferase (Sigma, St. Louis, Mo.) in a volume of 10 μl is added to 20 μl of PRP. Samples are immediately analyzed for luminescence. Activated platelets supply the ATP necessary for luminescence of the luciferin/luciferase assay. Assays can be performed at high throughput through use of a microtiter plate system, e.g., 384-well plates and a Multidrop 384 (Thermo Labsystems, Helsinki), read with a high density imaging system, e.g., the Tundra system (Imaging Research, St. Catherine's, Ontario).
In order to assay platelet activation by cell surface marker expression, fresh PRP is isolated from donors who have not ingested aspirin for two weeks prior to donation. PRP (40 μl) is incubated with known or suspected inhibitor in DMSO or DMSO alone for 15 min. The sample is then incubated with the indicated agonist (e.g., SFLLR) for 10 min. Following incubation of the sample with the indicated agonist, 10 μl of reaction mixture is transferred to 5 μl of phycoerythrin (PE)-conjugated AC 1.2 anti-P-selectin antibody (for assessment of P-selectin surface expression) or fluorescein isothiocyanate (FITC)-conjugated PAC-1 antibody (for assessment of GPIIbIIIa activation). PBS (500 μl) is added to the sample after a 20 min incubation and the platelets are analyzed immediately by flow cytometry. Flow cytometry can be performed using, for example, a Becton-Dickinson FACSCalibur flow cytometer or its equivalent. Fluorescent channels are set at logarithmic gain. Ten thousand particles are acquired for each sample. A 530/30 band pass filter is used for FL-1 fluorescence. A 585/42 band pass filter is used for FL-2 fluorescence. FITC is measured in the FL-1 channel and PE is measured in the FL-2 channel. Data are analyzed using, for example, CellQuest software on a Macintosh PowerPC, or their equivalents.
Compounds were tested for the ability to inhibit agonist-induced ADP/ATP release from platelet dense granules using a luciferin-luciferase reporter system. In this assay, compounds were incubated with platelet-rich plasma (PRP) for 30 min. A cocktail of the platelet agonist and luciferin-luciferase was then added to the wells. Plates were immediately analyzed using a Tundra high density luminescence imager. […] As a control, compounds were also screened in a platelet-free assay for the ability to inhibit luciferin-luciferase upon exposure to ATP.
Each of the compounds was tested for inhibition of platelet activation in response to the agonists SFLLR (a thrombin mimic), U46619 (a thromboxane A2 mimic), ADP and the phorbol ester PMA.
Compounds were also tested by flow cytometry for the inhibition of SFLLR-induced GPIIbIIIa activation and P-selectin expression. In these experiments, freshly obtained PRP was prepared from healthy volunteers who had not ingested aspirin for two weeks prior to donation. Forty μl of PRP was incubated with inhibitor in DMSO or DMSO alone for 15 min. The sample was then incubated with the indicated agonist for 10 min. Following incubation of the sample with the indicated agonist, 10 μl of reaction mixture was transferred to 5 μl of PE-conjugated AC1.2 anti-P-selectin antibody (for assessment of P-selectin surface expression) or FITC-conjugated PAC-1 antibody (for assessment of GPIIbIIIa activation). PBS (500 μl) was added to the sample after a 20 min incubation and the platelets were analyzed immediately by flow cytometry. Flow cytometry was performed using a Becton-Dickinson FACSCalibur flow cytometer. Fluorescent channels were set at logarithmic gain. Ten thousand particles were acquired for each sample. A 530/30 band pass filter was used for FL-1 fluorescence. A 585/42 band pass filter was used for FL-2 fluorescence. FITC was measured in the FL-1 channel and PE was measured in the FL-2 channel.
Background: In flow cytometry, cells or beads pass a laser one at a time.

Turning to `CC1CC(=O)NN=C1c1ccc(N)c([N+](=O)[O-])c1` (stereo not drawn) [6-(4-Amino-3-nitro-phenyl)-5-methyl-4,5-dihydro-2H-pyridazin-3-one], in the experiment on platelets [1] (agonist SFLLR), the SFLLR-induced platelet aggregation result is “potent inhibitor”. Besides, the “ADP- and collagen-induced granule release less potent than SFLLR and U46619” value with platelets [2] is “at least 25 fold”. For the same molecule, the “ADP-induced responses inhibited less effectively than SFLLR and U46619 responses” value with platelets [2] (ADP vs SFLLR and U46619) was “approximately 20 fold”. The IC50 in the experiment with platelets [2] (agonist ADP, read-out: IC50s of inhibition of platelet granule secretion induced with ADP) came to 8 µM; with platelets [2] (agonists SFLLR and U-46619, read-out: IC50 SFLLR- and U-46619-induced activation), 0.3 µM; in the experiment on platelets [2] (agonist Collagen, read-out: IC50 collagen-induced platelet granule release) it was 70 µM. Further, the “Inhibition of PMA-induced platelet activation” value in the experiment on platelets [2] (agonist PMA) is given as “did not inhibit”. Besides, the “Inhibition of PMA-induced activation” value with platelets [2] (agonist PMA, up to 1000 μM) is on record as “No inhibition”.
With `CCCCCn1c2c(c(=N)c3ccccc31)CCC2` [JF081204{5C}], the IC50 in the experiment on platelets [1] (agonist U-46619, read-out: IC50 Platelet Aggregation Induced by U-46619) was 400 µM; in the experiment with platelets [1] (agonist Collagen, read-out: IC50 Platelet Aggregation Induced by Collagen) it was > 200 µM; in the experiment on platelets [1] (agonist Epinephrine, read-out: IC50 Platelet Aggregation Induced by Epinephrine), 5 µM; with platelets [1] (agonist SFLLRN, read-out: IC50 Platelet Aggregation Induced by SFLLRN) it was 2 µM; in the experiment with platelets [1] (agonists SFLLRN, epinephrine, read-out: IC50 SFLLRN- and epinephrine-induced platelet aggregation), < 5 µM; with platelets [2] (agonist A23187, read-out: IC50 P-Selectin Expression Induced by A23187), > 300 µM. The IC50 was 300 µM in the experiment on platelets [2] (agonist PMA, read-out: IC50 P-Selectin Expression Induced by PMA); 2 µM in the experiment on platelets [2] (agonist SFLLRN, maximally stimulatory dose, read-out: IC50 P-Selectin Expression Induced by SFLLRN); 2 to 150 µM with platelets [2] (agonist SFLLRN/SFLLR, human platelets, read-out: IC50 SFLLRN-induced P-selectin expression, flow cytometry); 400 µM in the experiment on platelets [2] (agonist U46619, read-out: IC50 P-Selectin Expression Induced by U46619). Besides, the “Inhibition of U46619- and collagen-induced platelet aggregation” value in the experiment with platelets [1] (agonists U46619, collagen) was “not effective”. Besides, in the experiment with platelets [2], the “U46619-, A23187-, and PMA-induced P-selectin expression less potent than SFLLR” value is “at least 150 fold”. Besides, in the experiment on platelets [2] (footnote, sentence cut off), the “Potency in inhibiting SFLLRLN- and epinephrine-induced activation relative to other agonists” value was “#inhibit platelet activation induced by the indicated agonist is shown. The potency of this compound in inhibiting SFLLRLN- and epinephrine-induced activation was at least 100-fold greater than that o”.
